# Measurements taken from patent US9067896B2, “Crystalline forms of 3-(2,6-dichloro-3,5-dimethoxy-phenyl)-1-{6-[4-(4-ethyl-piperazin-1-yl) -phenylamino]-pyrimidin-4-yl}-1-methyl-urea and salts thereof” (Novartis AG, priority 2009, dated 2015).
# Structures can show the parent of a compound that is named as a salt.
# What was measured:
# Format in all cases: physicochemical
# [1] = Hygroscopicity from DVS sorption/desorption isotherms
# Protocol: Hygroscopicity was measured from sorption/desorption isotherms using Surface Measurement System DVS-1 at 25±0.5° C. Samples were evaluated at various humidities including 75%, 85%, and 95%.
# The free base (anhydrous and monohydrate) and its phosphate salt (form A) were subjected to sorption and desorption cycle using a VTI brand instrument. The solids were collected after the experiment and analyzed. […] The DVS plots are shown in FIGS. 4A (free base, anhydrous), 4B (phosphate salt (form A) and 4C (free base, monohydrate). The maximum water uptake for the phosphate salt (form A) was less than 2% (i.e. 0.7%) at 25° C. up to 95% relative humidity (rh) (see Table 9). The maximum water uptake for the monohydrate was less than 1.4% at 25° C. up to 95% RH. The monohydrate with an approximate water content of 3% could not be completely dried during the experiment but the water that could be removed was reversibly reabsorbed. The plateau of existence of the monohydrate form is found to be within 10% and 95% RH with a slight hysteresis at the second desorption cycle.
# [2] = Determination of solubility (equilibration in solvent, filtrate by HPLC)
# Protocol: Excess free base (free base of Formula I), its phosphate salt (the monophosphoric acid salt of the free base), or another acid salt was equilibrated in solvents for 1 day at 25±0.5° C. The resultant slurry was filtered and the filtrate used for solubility determination by HPLC.
# Solubility of the monohydrate of the anhydrous and monohydrate free base was measured in various aqueous media (e.g., pH 6.8 buffer, pH 4.5 buffer, pH 1 buffer), including simulated and actual human fluids.
# The human fluids were collected from 12 human subjects.
# Solubility studies of the phosphate salt were undertaken in aqueous media and in human fluids at 24 hours.
# [3] = Intrinsic dissolution rate; conditions: 37° C., disc 200 rpm, 290 nm
# Protocol: The intrinsic dissolution rate measurements were carried out in 0.5 cm^2 VanKel punch and die assemblies at a pellet pressure of 2000 pounds. […]
# The intrinsic dissolution rate was determined for the phosphate salt in water, pH=6.8 and 0.1N HCl, and for the free base monohydrate in pH=6.8, 4.5 and 0.1N HCl. The measurements were carried out on a VanKel instrument using a Cary UV/VIS spectrophotometer (Table 2).
# Solid state stability = conditions: one week at 80° C., sealed containers and 75% relative humidity, alone and with excipients as 1% mixture
# Protocol: In the solid state, the samples were stressed for one week at 80° C., in sealed containers and under 75% relative humidity. […] The amount of degradation products of the anhydrous free base as assessed by HPLC was 1% or less (based on peak area), while the degradation of the phosphate salt accounted for 1.4% or less.
# [4] = Polymorphic stability by XRPD (equilibration, crystallization, evaporation, precipitation, compression, granulation); design: key to XRPD Result, crystallization by evaporation: —: no change detected; conditions: for XRPD Result, crystallization by evaporation: unstirred; for XRPD after crystallization from hot saturated solution: dissolved at 60° C., cooled in ice bath
# Protocol: Slurries of samples were stirred at high speed for 24 hours at 25±0.5° C., filtered, and the solid collected analyzed by XRPD.
# About 20 mg of the phosphate salt (form A) was equilibrated with 2 ml of a variety of solvents for at least 24 h at room temperature. Then the solution was filtered and the residue dried overnight at 50° C. under house vacuum. The solid obtained was investigated by XRPD. […]
# About 20 mg of the phosphate salt (form A) was also equilibrated at about 50° C. with 2 ml solvent for at least 24 h. Then the solution was filtered and the residue dried overnight at 50° C. under house vacuum. The solid obtained was investigated by XRPD.
# About 20 mg of the phosphate salt (form A) was dissolved in 2 ml solvent at 60° C. The solution was filtered. The clear filtrate obtained was cooled in an ice bath and agitated. The precipitate was collected on a filter, dried and investigated by XRPD.
# About 20 mg of the phosphate salt (form A) was mixed with 2 ml solvent at 25° C. After stirring overnight, the solution was filtered. The filtrate was placed under nitrogen flow to evaporate the solvent. The residual solid was collected and investigated. The above evaporation was performed without stirring. Upon evaporation from THF/water (1:1) without stirring, a solid with XRPD pattern similar to that of the B form (see FIG. 1C), was obtained once. Subsequently, under these conditions, amorphous material, rather than form B, was obtained.
# The same experiments (as described above for the 25° C. evaporation) were performed at 50° C.
# Two different solvent combinations were tested. The phosphate salt (form A) was dissolved in DMSO where its solubility was high. A solvent (the anti-solvent) in which the form A was highly insoluble was added to the solution. The precipitate was collected on a filter, dried, and investigated by XRPD.
# The phosphate salt (form A, 300 mg) was compressed for 5 minutes at 4000 pounds with a hydraulic press (diameter of the tablets 8 mm).
# A solvent (water or ethanol) was added drop wise to the phosphate salt (form A) placed in a mortar until the solid in the mortar was sufficiently wet, and ground using a pestle until a paste-like consistency was obtained. The paste was dried at around 40° C. and under reduced pressure for >8 hours.
# [5] = Relative humidity 5%, after the 95% step
# [6] = Relative humidity 5%, before the 95% step
# [7] = Relative humidity 25%, after the 95% step
# [8] = Relative humidity 25%, before the 95% step
# [9] = Relative humidity 50%, after the 95% step
# [10] = Relative humidity 50%, before the 95% step
# [11] = Relative humidity 75%, after the 95% step
# [12] = Relative humidity 75%, before the 95% step
# [13] = Relative humidity 85%, after the 95% step
# [14] = Relative humidity 85%, before the 95% step
smiles,measurement,setting,value
"CCN1CCN(c2ccc(Nc3cc(N(C)C(=O)Nc4c(Cl)c(OC)cc(OC)c4Cl)ncn3)cc2)CC1 [Free Base, 3-(2,6-Dichloro-3,5-dimethoxy-phenyl)-1-{6-[4-(4-ethyl-piperazin-1-yl)-phenylamino]-pyrimidin-4-yl}-1-methyl-urea]",hygroscopicity (in words),[1]; listed as anhydrous free base,slightly hygroscopic
same,Solubility in mg/ml after 24 h,"[2]; Fasted State Simulated Intestinal Fluid (FaSSIF), listed as Anhydrous Free Base",0.001 mg/mL
same,Solubility in mg/ml after 24 h,"[2]; Fed State Simulated Intestinal Fluid (FeSSIF), listed as Anhydrous Free Base",0.148 mg/mL
same,Solubility in mg/ml after 24 h,"[2]; HIF, fed, listed as Anhydrous Free Base",0.004 mg/mL
same,Solubility in mg/ml after 24 h,"[2]; Human gastric fluid (HGF), listed as Anhydrous Free Base",0.001 mg/mL
same,Solubility in mg/ml after 24 h,"[2]; Human intestinal fluid (HIF) fasted, listed as Anhydrous Free Base",0.002 mg/mL
same,Solubility in mg/ml after 24 h,"[2]; Simulated Gastric Fluid (SGF), listed as Anhydrous Free Base",0.0497 mg/mL
same,solubility in common organic solvents (in words),[2]; listed as anhydrous free base,sparingly to slightly soluble
same,Solubility,"[2]; initial solubility test, Water",1 µg/mL
same,Solubility,"[2]; initial solubility test, pH3 Buffer",200 µg/mL
same,solubility at 24 h,"[2]; pH 1 HCl, 25 °C, pH 1, simulated gastric fluid, thermodynamic from solid, pH 1 HCl, read-out: Solubility in mg/ml after 24 h",0.052 mg/mL
same,Solubility,"[2]; pH 6.8 buffer, listed as anhydrous free base",ca. 0.00004 mg/mL
same,Solubility in mg/ml after 24 h,"[2]; ph 4.5 Acetate, listed as Anhydrous Free Base",0.008 mg/mL
same,Solubility in mg/ml after 24 h,[2]; ph 6.8 Phosphate,<LOQ*
same,Solubility,"[2]; water (free base: pH 6.67), listed as anhydrous free base",~0.09 µg/mL
same,Intrinsic DR value,"[3]; HCl 0.1N, listed as Anhydrous Free Base",0.28 mg/min/cm^2
same,Intrinsic DR value,"[3]; Water, listed as Anhydrous Free Base",0.01 mg/min/cm^2
same,amount of degradation products by HPLC (peak area),Solid state stability; listed as anhydrous free base,≤ 1%
same,XRPD after equilibration with solvents,"[4]; room temperature, water, ethanol, isopropanol, ethyl acetate, acetone",No new XRPD pattern was observed
CCN1CCN(c2ccc(Nc3cc(N(C)C(=O)Nc4c(Cl)c(OC)cc(OC)c4Cl)ncn3)cc2)CC1 [Phosphate salt (form A)],weight gain due to water absorption (DVS),"[1]; 75% RH, listed as phosphate salt",< 1%
same,weight gain due to water absorption (DVS),[1]; 85% RH,< 1%
same,weight gain due to water absorption (DVS),"[1]; 95% RH, listed as phosphate salt",< 2%
same,Adsorption Weight Gain (%),[1]; Relative humidity 0%,0.000%
same,Desorption Weight Gain (%),[1]; Relative humidity 0%,0.000%
same,Adsorption Weight Gain (%),[1]; [5],0.000%
same,Desorption Weight Gain (%),[1]; [5],0.048%
same,Adsorption Weight Gain (%),[1]; [6],0.016%
same,Desorption Weight Gain (%),[1]; [6],0.091%
same,Adsorption Weight Gain (%),[1]; [7],0.177%
same,Desorption Weight Gain (%),[1]; [7],0.447%
same,Adsorption Weight Gain (%),[1]; [8],0.165%
same,Desorption Weight Gain (%),[1]; [8],0.507%
same,Adsorption Weight Gain (%),[1]; [9],0.334%
same,Desorption Weight Gain (%),[1]; [9],0.705%
same,Adsorption Weight Gain (%),[1]; [10],0.309%
same,Desorption Weight Gain (%),[1]; [10],0.738%
same,Adsorption Weight Gain (%),[1]; [11],0.467%
same,Desorption Weight Gain (%),[1]; [11],1.275%
same,Adsorption Weight Gain (%),[1]; [12],0.437%
same,Desorption Weight Gain (%),[1]; [12],1.022%
same,Adsorption Weight Gain (%),[1]; [13],0.520%
same,Desorption Weight Gain (%),[1]; [13],1.421%
same,Adsorption Weight Gain (%),[1]; [14],0.495%
same,Desorption Weight Gain (%),[1]; [14],1.245%
same,Adsorption Weight Gain (%),[1]; Relative humidity 95%,0.653%
same,Desorption Weight Gain (%),[1]; Relative humidity 95%,1.547%
same,hygroscopicity (in words),[1]; listed as phosphate salt,slightly hygroscopic
same,Solubility in mg/ml after 24 h,"[2]; Fasted State Simulated Intestinal Fluid (FaSSIF), listed as Phosphate Salt",0.003 mg/mL
same,Solubility in mg/ml after 24 h,"[2]; Fed State Simulated Intestinal Fluid (FeSSIF), listed as Phosphate Salt",1.067 mg/mL
same,Solubility in mg/ml after 24 h,"[2]; HIF, fed, listed as Phosphate Salt",0.00141 mg/mL
same,Solubility in mg/ml after 24 h,"[2]; Human gastric fluid (HGF), listed as Phosphate Salt",0.0115 mg/mL
same,Solubility in mg/ml after 24 h,"[2]; Human intestinal fluid (HIF) fasted, listed as Phosphate Salt",0.00223 mg/mL
same,Solubility in mg/ml after 24 h,"[2]; Simulated Gastric Fluid (SGF), listed as Phosphate Salt",0.088 mg/mL
same,solubility in common organic solvents (in words),[2],sparingly soluble
same,Solubility,"[2]; initial solubility test, Water, listed as Phosphate",1700 µg/mL
same,Solubility,"[2]; initial solubility test, pH3 Buffer, listed as Phosphate",39 µg/mL
same,Solubility in mg/ml after 24 h,"[2]; pH 1 HCl, listed as Phosphate Salt",0.089 mg/mL
same,Solubility,[2]; pH 6.8 buffer,ca. 0.00009 mg/mL
same,Solubility in mg/ml after 24 h,"[2]; ph 4.5 Acetate, listed as Phosphate Salt",0.731 mg/mL
same,Solubility,[2]; water (free base: pH 6.67),1300 µg/mL
same,Intrinsic DR value,[3]; HCl 0.1N,1.0661 mg/min/cm^2
same,Intrinsic DR value,[3]; Water,0.3279 mg/min/cm^2
same,Intrinsic DR value,[3]; pH = 6.8,0.0056 mg/min/cm^2
same,amount of degradation products by HPLC (peak area),Solid state stability,≤ 1.4%
same,XRPD after compression,"[4]; 300 mg, 5 minutes at 4000 pounds, hydraulic press",No change of crystalline modification
same,XRPD after crystallization by evaporation,"[4]; 25° C., solution stirred during evaporation",form A was consistently obtained
same,XRPD after crystallization by evaporation,"[4]; 25° C., without stirring, 1:1 solutions of water with ethanol, 2-propanol, acetone, tetrahydrofuran",amorphous material was obtained
same,XRPD after crystallization by evaporation,"[4]; 50° C., solution stirred",Form A was also obtained
same,"XRPD Result, crystallization by evaporation","[4]; 50° C., 2-propanol/water 1:1",—
same,"XRPD Result, crystallization by evaporation","[4]; 50° C., Acetone/water 1:1",—
same,"XRPD Result, crystallization by evaporation","[4]; 50° C., Acetonitrile/water 1:1",Amorphous
same,"XRPD Result, crystallization by evaporation","[4]; 50° C., Ethanol/water 1:1",Amorphous
same,"XRPD Result, crystallization by evaporation","[4]; 50° C., Methanol/water 1:1",—
same,"XRPD Result, crystallization by evaporation","[4]; 50° C., Tetrahydrofuran/water 1:1",—
same,XRPD after equilibration with solvents,"[4]; at least 24 h at about 50° C., solvents of Table 7",No new XRPD pattern was observed
same,XRPD after equilibration with solvents,"[4]; at least 24 h at room temperature, solvents of Table 6",No new XRPD pattern was observed
same,XRPD after crystallization from hot saturated solution,"[4]; 1:1 solutions of water with methanol, ethanol, 2-propanol, acetone, tetrahydrofuran",No change in polymorphic form
same,XRPD after crystallization from hot saturated solution,[4]; DMSO,form change noted
same,XRPD after precipitation by addition of anti-solvent,"[4]; dissolved in DMSO, anti-solvents methanol, ethanol, isopropanol, acetone, acetonitrile, THF, ethyl acetate, propyl acetate, toluene, methyl t-butyl ether, 1,4-dioxane, methylene chloride",No change in Form
same,XRPD after granulation,"[4]; wetted with water or ethanol, ground, dried at around 40° C.",no changes in the XRPD spectra
